Experimental data taken from patent publication US8921071B2, “Targeting poly-gamma-glutamic acid to treat Staphylococcus epidermidis and related infections” (priority 2005, dated 2014).
No end group written: not given here.

System: S. epidermidis
Assay: Peptide bacterial killing assay
Format: cell-based, Staphylococcus epidermidis
Settings: S. epidermidis Δcap versus wild-type; approximately 10^5 cells; 0-40 μg/ml peptide; 2 hours at 37° C.; survivors counted by plating
Description: S. epidermidis cultures were harvested, washed with PBS buffer, and resuspended in 10 mM sodium phosphate buffer (pH 7.0). Bacterial killing assays were performed using a final concentration of approximately 10^5 S. epidermidis cells in each sample. Antimicrobial peptides were dissolved in the following solutions: human β-defensin 3, 10 mM acetic acid, and LL-37, 10% acetonitrile with 0.1% trifluoroacetic acid. The bacteria were exposed to a range of antimicrobial peptide concentrations (0, 5, 10, 20, 30, and 40 μg/ml). An equal volume of the respective peptide dilution buffer was applied to control samples. Samples were incubated at 37° C. for 2 hours and appropriate dilution series of the samples were plated on TSB agar. Survivor S. epidermidis cells were enumerated after 24 hours of incubation at 37° C. The percentage of killed S. epidermidis was calculated using the formula (1−[CFUpeptide/CFUcontrol])×100.
Resistance to cationic antimicrobial peptides was determined by incubating washed S. epidermidis cells (approximately 10^5) with LL-37 or human β-defensin 3 in various concentrations of antimicrobial peptides for 2 hours at 37° C. Thereafter, S. epidermidis survivor cells were counted by plating. Results are shown as dose-response curves. […] Values of significance were calculated against the wild-type (for Δcap) and Δcap (for capBCAD) strains.

| Substance | resistance of the cap mutant strain to antibacterial peptide |
| --- | --- |
| LL-37 (LLGDFFRKSKEKIGKEFKRIVQRIKDFLRNLVPRTES; Antibacterial peptide LL-37; UniProt P49913 134-170, looked up) [representative cationic antibacterial peptide from human skin and neutrophil specific granules] | significantly reduced resistance |
| human β-defensin 3 (GIINTLQKYYCRVRGGRCAVLSCLPKEEQIGKCSTRGRKCCRRKK; ends and bridges not checked; cysteine pairing not given here; UniProt P81534 23-67, looked up) [representative cationic antibacterial peptide from human skin and neutrophil specific granules] | significantly reduced resistance |
